# From patent publication US20170275287A1, “NOVEL N2, N4, N7, 6-TETRASUBSTITUTED PTERIDINE-2,4,7-TRIAMINE AND 2, 4, 6, 7-TETRASUBSTITUTED PTERIDINE COMPOUNDS AND METHODS OF SYNTHESIS AND USE THEREOF” (Janus Biotherapeutics, Inc., priority 2014, published 2017)
# pIC50: −log10 of the molar value.
# Columns and labels:
# hepatocyte = experiment: Hepatocyte viability assay (CEREP); format: cell-based
# Protocol: See, Tables 4b and Scheme 18. The hepatocyte cell viability assays were performed by CEREP, Seattle, Wash., according to Mosmann, T., 1983, J. Immunol. Met. 65:55-62.
# hERG = molecular target: T1, hERG (Homo sapiens, UniProt Q12809); experiment: hERG patch clamp assay (automated, CHO-hERG cells); format: cell-based
# T1 construct: host or cells: CHO (Chinese hamster ovary)
# T1 sequence (Q12809 whole entry): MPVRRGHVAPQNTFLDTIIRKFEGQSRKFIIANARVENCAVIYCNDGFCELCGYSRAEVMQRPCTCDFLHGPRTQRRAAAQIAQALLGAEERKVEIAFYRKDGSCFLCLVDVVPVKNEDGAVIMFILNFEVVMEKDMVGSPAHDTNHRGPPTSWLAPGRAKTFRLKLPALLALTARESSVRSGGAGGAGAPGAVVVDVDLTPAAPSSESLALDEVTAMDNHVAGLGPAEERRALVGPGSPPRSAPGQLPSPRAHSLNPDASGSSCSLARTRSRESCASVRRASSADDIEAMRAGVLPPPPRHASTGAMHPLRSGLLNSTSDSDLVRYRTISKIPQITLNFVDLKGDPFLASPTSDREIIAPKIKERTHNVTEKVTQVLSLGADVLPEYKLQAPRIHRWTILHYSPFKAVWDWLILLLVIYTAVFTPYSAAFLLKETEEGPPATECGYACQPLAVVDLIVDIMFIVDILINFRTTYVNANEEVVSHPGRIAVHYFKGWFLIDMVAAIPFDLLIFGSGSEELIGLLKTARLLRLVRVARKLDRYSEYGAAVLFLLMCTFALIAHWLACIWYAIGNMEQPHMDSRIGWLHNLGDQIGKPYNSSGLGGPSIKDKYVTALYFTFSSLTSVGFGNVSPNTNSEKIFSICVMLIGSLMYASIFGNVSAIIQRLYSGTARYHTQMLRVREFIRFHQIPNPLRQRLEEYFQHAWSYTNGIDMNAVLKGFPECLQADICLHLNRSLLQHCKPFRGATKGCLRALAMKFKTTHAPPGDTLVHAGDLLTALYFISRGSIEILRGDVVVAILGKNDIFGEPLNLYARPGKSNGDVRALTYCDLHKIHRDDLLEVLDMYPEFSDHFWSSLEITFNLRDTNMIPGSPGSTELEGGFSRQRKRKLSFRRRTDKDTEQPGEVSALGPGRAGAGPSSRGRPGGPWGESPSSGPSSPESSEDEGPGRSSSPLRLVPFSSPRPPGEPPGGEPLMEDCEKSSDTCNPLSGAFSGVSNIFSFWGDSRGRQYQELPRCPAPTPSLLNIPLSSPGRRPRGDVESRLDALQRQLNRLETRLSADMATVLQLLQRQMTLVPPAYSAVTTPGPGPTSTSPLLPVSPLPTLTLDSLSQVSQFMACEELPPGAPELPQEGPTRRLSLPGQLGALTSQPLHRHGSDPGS
# Protocol: The hERG inhibition assay uses a high throughput single cell planar patch clamp approach. Chinese hamster ovary cells transfected with the hERG gene (CHO-hERG) are dispensed into the PatchPlate. Amphotericin is used as a perforating agent to gain electrical access to the cells. The hERG tail current is measured prior to the addition of the test compound by perforated patch clamping. Following addition of the test compound at a defined concentration or range of concentrations a second recording of the hERG current is performed. The degree of inhibition (%) is obtained by measuring the tail current amplitude, which is induced by a one second test pulse to −40 mV after a two second pulse to +20 mV, before and after drug incubation (the difference current is normalized to control and multiplied by 100 to obtain the percent of inhibition).
# Concentration (log) response curves were fitted to a logistic equation (three parameters assuming complete block of the current at very high test compound concentrations) to generate estimates of the 50% inhibitory concentration (IC50). The concentration-response relationship of each compound is constructed from the percentage reductions of current The data is usually categorized into the following classification bands:
# The hERG assay was conducted by Cyprotec Inc. in its Watertown, Mass. laboratories. The concentration range tested was 0.0096-30 μM. No concentration-dependent inhibition was observed, IC50>30 μM.
# The hERG inhibition assay uses a high throughput single cell planar patch clamp approach. Chinese hamster ovary cells transfected with the hERG gene (CHO-hERG) are dispensed into the PatchPlate. Amphotericin is used as a perforating agent to gain electrical access to the cells. The hERG tail current is measured prior to the addition of the test compound by perforated patch clamping. Following addition of the test compound, n=4 cells per concentration, final DMSO concentration=0.25%), a second recording of the hERG current is performed.
# Post-compound hERG currents are expressed as a percentage of pre-compound hERG currents (% control current) and plotted against concentration for each compound. Where concentration dependent inhibition is observed the Hill equation is used to fit a sigmoidal line to the data and an IC50 (concentration at which 50% inhibition is observed) is determined. The assays were performed according to Haverkamp, W. et al., 2000, Eur Heart J., 21:1216-1231, Kiss, L. et al., 2003, Assay Drug Dev. Technol., 1:127-135 and Schroeder, K. et al., 2003, J. Biomol Screen, 8:50-64.
SMILES,% Hepatocyte viability 24 h at 100 μM (hepatocyte) [%],pIC50 (hERG; Table 4b),"pIC50 (hERG; hERG patch clamp assay, FIG. 1)","pIC50 (hERG; human, CHO cells transfected with hERG (CHO-hERG), Table 4b)","pIC50 (hERG; Cyprotec, concentration range tested 0.0096-30 μM)",hERG inhibition (hERG; up to 30 μM),% Hepatocyte viability 24 h at 50 μM (hepatocyte) [%]
CN1CCN(c2nc(NCCN3CCOCC3)c3ncc(-c4ccccc4)nc3n2)CC1 [JB6059],69,5.30,5.21,–,–,–,–
CN1CCN(c2nc3nc(-c4ccccc4)nc(NCCN4CCOCC4)c3nc2OCCN2CCOCC2)CC1 [JB6116],69,–,4.88,> 4.52,–,–,–
"CN1CCN(c2nc(NCCN3CCOCC3)c3nc(Cl)c(NCCN4CCOCC4)nc3n2)CC1 [JB6121, 6-chloro-2-(4-methylpiperazin-1-yl)-N^4,N^7-bis(2-morpholinoethyl)pteridine-4,7-diamine]",92,< 4.52,–,–,< 4.52,no measurable hERG inhibition,–
CCOc1nc2c(NCCN3CCCC3)nc(-c3ccccc3)nc2nc1N1CCN(C)CC1 [JB6131],11,> 5.00,5.09,–,–,–,–
CCCCNc1nc(NCCN2CCOCC2)c2nc(Cl)c(NCCN3CCOCC3)nc2n1 [JB6140],–,> 6.00,–,–,–,–,59
C[C@@H]1CN(CCNc2nc3nc(N4CCN(C)CC4)nc(NCCN4C[C@@H](C)O[C@@H](C)C4)c3nc2Cl)C[C@H](C)O1 [JB6143],–,< 4.52,–,–,–,–,74
COCCN1CCN(c2nc(NCCN3CCOCC3)c3nc(Cl)c(NCCN4CCOCC4)nc3n2)CC1 [JB6160],–,< 4.52,–,–,–,–,47
Clc1nc2c(NCCN3CCOCC3)nc(NCc3ccccc3)nc2nc1NCCN1CCOCC1 [JB6172],–,6.00,–,–,–,–,51
CCOc1nc2c(NCCN3CCOCC3)nc(NCc3ccccc3)nc2nc1NCCN1CCOCC1 [JB6180],–,6.52,–,–,–,–,13
CCCCNc1nc(NCCN2CCOCC2)c2nc(SCC)c(NCCN3CCOCC3)nc2n1 [JB6185],–,> 6.52,–,–,–,–,0
